Assay results reported in PubChem BioAssay (NCI).
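Following 48 hours of exposure in 96-well plates, responses at five concentrations were used to interpolate endpoints linearly. TGI marks complete inhibition of growth.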

Assays:
Assay in all cases: NCI tumour cell line growth inhibition, 48 h
SR leukemia = test system: SR leukemia
HCT-15 colon = test system: HCT-15 colon
T-47D breast = test system: T-47D breast
CAKI-1 renal = test system: CAKI-1 renal
SF-268 CNS = test system: SF-268 CNS
BT-549 breast = test system: BT-549 breast
MDA-N = test system: MDA-N
NCI/ADR-RES ovarian = test system: NCI/ADR-RES ovarian
NCI-H226 lung = test system: NCI-H226 lung
U251 CNS = test system: U251 CNS
DU-145 prostate = test system: DU-145 prostate
SK-MEL-2 melanoma = test system: SK-MEL-2 melanoma
MDA-MB-435 = test system: MDA-MB-435
SK-OV-3 ovarian = test system: SK-OV-3 ovarian
OVCAR-8 ovarian = test system: OVCAR-8 ovarian
SNB-75 CNS = test system: SNB-75 CNS
A498 renal = test system: A498 renal
SF-539 CNS = test system: SF-539 CNS
HOP-62 NSCLC = test system: HOP-62 NSCLC
SW-620 colon = test system: SW-620 colon
SNB-19 CNS = test system: SNB-19 CNS
NCI-H23 lung = test system: NCI-H23 lung
786-0 renal = test system: 786-0 renal
K-562 leukemia = test system: K-562 leukemia
OVCAR-5 ovarian = test system: OVCAR-5 ovarian
ACHN renal = test system: ACHN renal
CCRF-CEM leukemia = test system: CCRF-CEM leukemia
UACC-257 melanoma = test system: UACC-257 melanoma
LOX IMVI melanoma = test system: LOX IMVI melanoma
HOP-92 NSCLC = test system: HOP-92 NSCLC
A549 NSCLC = test system: A549 NSCLC
NCI-H522 lung = test system: NCI-H522 lung
OVCAR-4 ovarian = test system: OVCAR-4 ovarian
IGROV1 ovarian = test system: IGROV1 ovarian
SK-MEL-28 melanoma = test system: SK-MEL-28 melanoma
UACC-62 melanoma = test system: UACC-62 melanoma
TK-10 renal = test system: TK-10 renal
MOLT-4 leukemia = test system: MOLT-4 leukemia
COLO 205 colon = test system: COLO 205 colon
SF-295 CNS = test system: SF-295 CNS
HS 578T breast = test system: HS 578T breast
HCC-2998 colon = test system: HCC-2998 colon
MALME-3M melanoma = test system: MALME-3M melanoma
UO-31 renal = test system: UO-31 renal
HT29 colon = test system: HT29 colon
SK-MEL-5 melanoma = test system: SK-MEL-5 melanoma
HCT-116 colon = test system: HCT-116 colon
M14 melanoma = test system: M14 melanoma
OVCAR-3 ovarian = test system: OVCAR-3 ovarian
SN12C renal = test system: SN12C renal
RXF 393 renal = test system: RXF 393 renal
RPMI-8226 leukemia = test system: RPMI-8226 leukemia
MDA-MB-231 breast = test system: MDA-MB-231 breast
EKVX NSCLC = test system: EKVX NSCLC
HL-60(TB) leukemia = test system: HL-60(TB) leukemia
MCF7 breast = test system: MCF7 breast
PC-3 prostate = test system: PC-3 prostate
NCI-H460 lung = test system: NCI-H460 lung
KM12 colon = test system: KM12 colon

Measured: TGI

CC1(C)Oc2ccccc2OC1O (centres undefined)
> 100 µM: all assays above
